The species entered for the experiment is Oryctolagus cuniculus. In words: Inhibitory activity against U-46,619-induced rabbit platelet aggregation was determined. Format: functional.

As a reminder, the IC50 is the concentration needed to halve the response being measured. Low values mean higher potency, high ones lower potency. Regarding `O=C(O)COc1c(F)cc(SCCNS(=O)(=O)c2ccc(Cl)cc2)cc1F`, half-maximal inhibition (Oryctolagus cuniculus) (IC50) was put at 0.34 µM.

In turn, `O=C(O)COc1c(F)cc([S+]([O-])CCNS(=O)(=O)c2ccc(Cl)cc2)cc1F` (racemic; form 1) showed an IC50 of at least 1 µM.

Molecule `O=C(O)COc1c(F)cc([S+]([O-])CCNS(=O)(=O)c2ccc(Cl)cc2)cc1F` (racemic; form 2) showed an IC50 of 18.9 µM.

`O=C(O)COc1c(F)cc([S+]([O-])CCNS(=O)(=O)c2ccc(Cl)cc2)cc1F` (stereo in doubt; (-/-)4b) displayed an IC50 of 13.3 µM. The IC50 values of the last two molecules are within 1.5-fold of each other.

The record behind these values is ChEMBL document CHEMBL1130537, “Asymmetric synthesis of the sulfoxide metabolite of ON-579 by the kagan protocol” (Bioorg Med Chem Lett, 1997).
